Results from article PMC7048748, “Anxiolytic Drug FGIN-1-27 Ameliorates Autoimmunity by Metabolic Reprogramming of Pathogenic Th17 Cells” (Scientific Reports, 2020).

System: eIF2α
Experiment: Western blot for phosphorylated eIF2α
Format: cell-based, mouse
Details: 24 hours, compared to DMSO controls
Description: (a) MA-plot showing shrunken log2 fold-changes of detected genes between the DMSO and FGIN-1-27 RNA-seq samples, ranked by average normalized count. Red dots indicate differentially expressed genes at adjusted p-value <0.05. (b) Transcript levels for the indicated genes after 24 hours of treatment with DMSO or FGIN-1-27 quantified by qPCR. The error bars represent SD. (c) Western blot analysis for phosphorylated eIF2α and ATF4 24 hours after treatment with DMSO or FGIN-1-27 (5 and 10 µM). Data are representative of 3 independent experiments. (d) Amino acids in Th17 cells measured 72 hours after treatment with FGIN-1-27. The error bars represent SD. (e) ROS was measured using cell permeant reagent 2′,7′ –dichlorofluorescin diacetate (DCFDA) at 24 hours following treatment with FGIN-1-27. Filled grey histogram-DMSO, dotted line-FGIN-1-27 (10 µM) and dashed line indicates FGIN-1-27 (5 µM). […] Data are normalized using DMSO treated cells as 100% and the error bars represent SD.
Cell lysates were prepared by lysis in RIPA buffer containing protease and phosphatase inhibitors and immunoblotting was performed by standard methods.
(a) W estern blot analysis for phosphorylated eIF2α and ATF4 24 hours after treatment
with DMSO or FGIN-1-27 (5 and 10 µM). […]
(a) Indicated sterols were measured in Th17 cells treated with DMSO or FGIN-1-27 for […]

## CCCCCCN(CCCCCC)C(=O)Cc1c(-c2ccc(F)cc2)[nH]c2ccccc12 [FGIN-1-27, N, N-di-n-hexyl 2-(4-fluorophenyl) indole-3-acetamide]
  increase in eIF2α phosphorylation: 4.5 fold
